Literature values as cited in US20040063806A1, “Antimicrobial polyalphaolefin composition” (priority 2000, published 2004).
Where two headings read alike, the source gives them in different places.

Key:
[1] = test system: Bacillus cereus var. mycoides; settings: origin A, medium NA
Clostridium sporogenes = settings: origin A, medium EA
Lactobacillus rhamnosus = Lactobacillus rhamnosus NCTC 7469, medium MACA
Micrococcus luteus = Micrococcus luteus ATCC 7468, medium M-H
Mycobacterium phlei = settings: origin A, medium BHI-A
Mycobacterium smegmatis = Mycobacterium smegmatis NCTC 8152, medium BHI-A
Nocardia asteroides = Nocardia asteroides NCTC 6761, medium BHI-A
Staphylococcus albus = Staphylococcus albus NCTC 7292, medium NA
[2] = test system: Staphylococcus epidermidis; settings: Staphylococcus epidermidis ATCC 12228, medium M-H
Staphylococcus hyicus = Staphylococcus hyicus NCTC 7944, medium BHI-A
Staphylococcus lactis = Staphylococcus lactis NCTC 8340, medium NA
[3] = test system: Staphylococcus saprophyticus; settings: Staphylococcus saprophyticus NCTC 7292, medium NA
Streptococcus agalactiae = Streptococcus agalactiae NCTC 8181, medium BHI-A
Streptococcus pneumoniae = Streptococcus pneumoniae ATCC 33400, medium M-H
[4] = test system: Streptococcus saprophyticus; settings: Streptococcus saprophyticus ATCC 15305, medium M-H
Alcaligenes faecalis = settings: origin A, medium NA
Enterobacter cloacae = Enterobacter cloacae ATCC 13047, medium M-H
Enterobacter sakazakii = Enterobacter sakazakii NCTC 8155, medium NA
Haemophilius influenca = Haemophilius influenca ATCC 33391, medium B-A
Klebsiella aerogenes = Klebsiella aerogenes NCTC 8172, medium NA
Loefferella mallei = Loefferella mallei NCTC 9674, medium NA
Moraxella lwolffii = settings: origin A, medium NA
Salmonella enteritidis = settings: origin A, medium NA
Shigella dysenteriae = Shigella dysenteriae NCTC 2249, medium NA
Vibrio cholerae = settings: origin A, medium NA
Candida paracrusei = settings: origin A, medium SMA
Candida parapsylosis = settings: origin A, medium SMA
Microsporum canis = Microsporum canis ATCC 10214, medium SMA
[5] = test system: Trichophyton mentsgrophytes; settings: Trichophyton mentsgrophytes ATCC 9533, medium SMA
Trichophyton rubrum = settings: origin A, medium SMA

## Oc1cc(Cl)ccc1Oc1ccc(Cl)cc1Cl [IRGAGUARD B 1000, 2,4,4′-trichloro-2′-hydroxydiphenyl ether]
[1]
  Microbiostatic effect: 3.0 ppm
Clostridium sporogenes
  Microbiostatic effect: 10.0 ppm
Lactobacillus rhamnosus
  Microbiostatic effect: 33.0 ppm
Micrococcus luteus
  Microbiostatic effect: 4.0 ppm
Mycobacterium phlei
  Microbiostatic effect: 0.3 ppm
Mycobacterium smegmatis
  Microbiostatic effect: 1.0 ppm
Nocardia asteroides
  Microbiostatic effect: 3.0 ppm
Staphylococcus aureus; Staphylococcus aureus ATCC 6538, medium NA
  Microbiostatic effect: 0.01 ppm
Staphylococcus aureus; Staphylococcus aureus ATCC 9144, medium M-H
  Microbiostatic effect: 0.05 ppm
Staphylococcus aureus; Staphylococcus aureus ATCC 13709, medium NA
  Microbiostatic effect: 0.01 ppm
Staphylococcus aureus; Staphylococcus aureus ATCC 29213, medium M-H
  Microbiostatic effect: <0.125 ppm
Staphylococcus aureus; Staphylococcus aureus NCTC 6571, medium NA
  Microbiostatic effect: 0.03 ppm
Staphylococcus aureus; Staphylococcus aureus NCTC 6966, medium NA
  Microbiostatic effect: 0.1 ppm
Staphylococcus aureus; Staphylococcus aureus NCTC 10443, medium M-H, Methicillin resistant
  Microbiostatic effect: 0.01 ppm
Staphylococcus aureus; Staphylococcus aureus NCTC 10703, medium M-H, Methicillin resistant
  Microbiostatic effect: 0.01 ppm
Staphylococcus aureus; Staphylococcus aureus NCTC 11150, medium M-H, Methicillin resistant
  Microbiostatic effect: 0.02 ppm
Staphylococcus aureus; Staphylococcus aureus NCTC 11940, medium M-H, Methicillin resistant
  Microbiostatic effect: 0.01 ppm
Staphylococcus aureus; Staphylococcus aureus NCTC 12232, medium M-H, Methicillin resistant
  Microbiostatic effect: 0.01 ppm
Staphylococcus aureus; Staphylococcus aureus NCTC 12493, medium M-H, Methicillin resistant
  Microbiostatic effect: 0.01 ppm
Staphylococcus aureus; Staphylococcus aureus NCTC 12497, medium M-H, Methicillin resistant
  Microbiostatic effect: 0.01 ppm
Staphylococcus albus
  Microbiostatic effect: 0.1 ppm
[2]
  Microbiostatic effect: <0.125 ppm
Staphylococcus hyicus
  Microbiostatic effect: 0.03 ppm
Staphylococcus lactis
  Microbiostatic effect: 3.0 ppm
[3]
  Microbiostatic effect: 0.1 ppm
Streptococcus agalactiae
  Microbiostatic effect: 3.0 ppm
Streptococcus pneumoniae
  Microbiostatic effect: 4.0 ppm
[4]
  Microbiostatic effect: 0.125 ppm
Alcaligenes faecalis
  Microbiostatic effect: >100 ppm
Enterobacter cloacae
  Microbiostatic effect: 0.5 ppm
Enterobacter sakazakii
  Microbiostatic effect: 0.3 ppm
Haemophilius influenca
  Microbiostatic effect: 2.0 ppm
Klebsiella aerogenes
  Microbiostatic effect: 0.3 ppm
Klebsiella pneumoniae; Klebsiella pneumoniae ATCC 4352, medium NA
  Microbiostatic effect: 0.3 ppm
Klebsiella pneumoniae; Klebsiella pneumoniae ATCC 10031, medium M-H
  Microbiostatic effect: 0.125 ppm
Loefferella mallei
  Microbiostatic effect: 0.3 ppm
Moraxella lwolffii
  Microbiostatic effect: 0.1 ppm
Proteus vulgaris; Proteus vulgaris NCTC 4636, medium NA
  Microbiostatic effect: 0.3 ppm
Proteus vulgaris; Proteus vulgaris NCTC 8313, medium NA
  Microbiostatic effect: 0.1 ppm
Pseudomonas aeruginosa; Pseudomonad aeruginosa ATCC 12055, medium NA
  Microbiostatic effect: >1000 ppm
Pseudomonas aeruginosa; Pseudomonas aeruginosa NCTC 8060, medium NA
  Microbiostatic effect: >1000 ppm
Salmonella enteritidis
  Microbiostatic effect: 0.1 ppm
Salmonella paratyphi B; Salmonella paratyphi B NCTC 3176, medium NA
  Microbiostatic effect: 0.3 ppm
Salmonella paratyphi B; Salmonella paratyphi B NCTC 5704, medium NA
  Microbiostatic effect: 0.1 ppm
Salmonella typhi; Salmonella typhi NCTC 786, medium NA
  Microbiostatic effect: 0.3 ppm
Salmonella typhi; Salmonella typhi NCTC 8384, medium NA
  Microbiostatic effect: 0.3 ppm
Shigella dysenteriae
  Microbiostatic effect: 0.1 ppm
Shigella flexneri; Shigella flexneri NCTC 8192, medium NA
  Microbiostatic effect: 0.3 ppm
Shigella flexneri; Shigella flexneri NCTC 8204, medium NA
  Microbiostatic effect: 0.1 ppm
Vibrio cholerae
  Microbiostatic effect: 10.0 ppm
Candida albicans; Candida albicans ATCC 10259, medium M
  Microbiostatic effect: 3 ppm
Candida albicans; Candida albicans, origin A, medium SMA
  Microbiostatic effect: 10 ppm
Candida paracrusei
  Microbiostatic effect: 4 ppm
Candida parapsylosis
  Microbiostatic effect: 30 ppm
Microsporum canis
  Microbiostatic effect: 3 ppm
[5]
  Microbiostatic effect: 1 ppm
Trichophyton rubrum
  Microbiostatic effect: 10 ppm
